Where “and” joins values, the source holds several entries; their conditions need not be identical. Identical values can stand only once.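 Briefly, cells in 96-well plates were exposed to five compound concentrations for 48 h, and endpoints were estimated by linear interpolation. At the GI50, growth is halved. TGI denotes the concentration required for complete inhibition of growth.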
Experiments:
Test in all cases: NCI anticancer screen, dose series, 48 h
[1] = test system: SF-539 CNS
[2] = test system: U251 CNS
[3] = test system: TK-10 renal
[4] = test system: SF-268 CNS
[5] = test system: CCRF-CEM leukemia
[6] = test system: SNB-75 CNS
[7] = test system: SNB-19 CNS
[8] = test system: UACC-257 melanoma
[9] = test system: A498 renal
[10] = test system: SW-620 colon

Row | Structure (SMILES) | GI50 [1] | TGI [1] [µM] | GI50 [2] | TGI [2] [µM] | GI50 [3] | TGI [3] [µM] | GI50 [4] | TGI [4] [µM] | GI50 [5] | TGI [5] [µM] | GI50 [6] | TGI [6] [µM] | GI50 [7] | TGI [7] [µM] | GI50 [8] | TGI [8] [µM] | GI50 [9] | TGI [9] [µM] | GI50 [10] | TGI [10] [µM]
1 | CC(C)(C)CC(C)(C)NCc1cc(C(C)(C)C)cc(CNC(C)(C)CC(C)(C)C)c1O | 0.00516 mM | 17.8 | 2.86 µM | 12.2 | 2.55 µM | 5.87 | 5.4 µM | 18.7 | 4.18 µM | 34.9 | 3.99 µM | 15.1 | 5.24 µM | 17.8 | 2210 nM | 6.52 | 2.53 µM | 11.3 | 2.79 µM | 12.4
2 | COC(=O)C1[C@H](c2cc(OC)c(OC)c(OC)c2)OC(=O)C1(C(=O)OC)C(=O)c1ccc2c(c1)OCO2 (stereo partly drawn) | – | > 100 | – | > 100 | – | > 100 | – | > 100 | – | > 100 | – | > 100 | – | > 100 | – | > 100 | – | > 100 | – | > 100
3 | Cc1cc(N(CCC#N)S(C)(=O)=O)ccc1C=Nc1ccc(C(=O)NN2C(=O)/C(=C/c3ccc(N(CCC#N)CCC#N)cc3C)N=C2c2cc([N+](=O)[O-])ccc2Cl)cc1 | – | > 100 | – | > 100 | – | > 100 | – | > 100 | – | > 100 | – | > 100 | – | > 100 | – | > 100 | – | > 100 | – | > 100
4 | O=[N+]([O-])CCc1cccc([N+](=O)[O-])c1 | – | > 100 | – | > 100 | – | > 100 | – | > 100 | – | > 100 | – | > 100 | – | > 100 | – | > 100 | – | > 100 | – | 22.7
5 | COC(=O)C(Cc1nc2ccccc2[nH]c1=O)C(=O)C(=O)Nc1ccc([N+](=O)[O-])cc1[N+](=O)[O-] (stereo not drawn) | – | 38.5 | – | 32.5 | – | 61.4 | – | 47.7 | – | 51.9 | – | 39.3 | – | > 100 | – | 36.9 | – | 40.9 | – | 39.6
6 | CCOC(=N)CC(=O)c1ccccc1 | – | > 100 | – | > 100 | – | > 100 | – | > 100 | – | > 100 | – | > 100 | – | > 100 | – | > 100 | – | > 100 | – | > 100
7 | CCc1cc(CCC(=O)Nc2c(C)cccc2C)[nH]n1 | – | > 100 | – | > 100 | – | > 100 | – | > 100 | – | > 100 | – | > 100 | – | > 100 | – | > 100 | – | > 100 | – | > 100
8 | O=C(O)C(Cl)(c1ccccc1)c1ccccc1 | – | > 100 | – | > 100 | – | > 100 | – | > 100 | – | > 100 | – | > 100 | – | > 100 | – | > 100 | – | > 100 | – | > 100
9 | CC/C(CC(=O)CCC(=O)Nc1ccccc1[N+](=O)[O-])=N/NC(=O)C[n+]1ccccc1 | – | > 100 | – | > 100 | – | > 100 | – | > 100 | – | > 100 | – | > 100 | – | > 100 | – | > 100 | – | > 100 | – | > 100
10 | Cc1cc(C)c(NC(=S)NC(=O)c2ccccc2)cc1C | – | > 100 | – | > 100 | – | > 100 | – | > 100 | – | > 100 | – | > 100 | – | > 100 | – | > 100 | – | > 100 | – | > 100
11 | CO[C@H](C(=O)[C@@H](O)[C@@H](C)O)[C@@H]1Cc2cc3cc(OC4CC(OC5CC(O)C(O)C(C)O5)C(O)C(C)O4)c(C)c(O)c3c(O)c2C(=O)[C@H]1OC1CC(OC2CC(OC3CC(C)(O)C(O)C(C)O3)C(O)C(C)O2)C(O)C(C)O1 (stereo partly drawn) | 0.0233 µg/mL and 0.0157 µg/mL | – | 0.016 µg/mL and 0.0132 µg/mL | – | 0.0792 µg/mL and 0.288 µg/mL | – | 0.0242 µg/mL and 0.0192 µg/mL | – | 0.0386 µg/mL and 0.0314 µg/mL | – | 0.0141 µg/mL and 0.0224 µg/mL | – | 0.0238 µg/mL and 0.0179 µg/mL | – | 0.0259 µg/mL and 0.0361 µg/mL | – | 0.0084 µg/mL and 0.0164 µg/mL | – | 0.0264 µg/mL and 0.0232 µg/mL | –
12 | COc1nc(N)nc2c1ncn2C1OC(CO)C(O)C1O (stereo not drawn) | 3.8 mM | > 5000 | > 5000 µM | > 5000 | > 5000 µM | > 5000 | > 5000 µM | > 5000 | 8.46 µM | – | > 5000 µM | > 5000 | > 5000 µM | > 5000 | – | > 5000 | > 5000 µM | > 5000 | > 5000 µM | > 5000
13 | Cc1ccc(C)c(C2NC(=O)c3ccccc3N2)c1 (stereo not drawn) | – | 3.07 | – | 17.9 | – | > 100 | – | > 100 | – | > 25.5 | – | 15.2 | – | > 49.5 | – | > 100 | – | 32 | – | > 49.6

— PubChem BioAssay (NCI)
